Assay results published in patent US8133889B2, “Dihydroindolone compounds, a process for their preparation and pharmaceutical compositions containing them” (Les Laboratoires Servier, priority 2009, dated 2012).

Experiments:
[1] = test system: A549 (human non-small cell lung carcinoma) cells; assay: Inhibition of the migration of A549 cells: scratch assay; type: cell-based; details: at 30 nM; A549 cells exposed 38 hours; 40 ng/ml HGF
Experimental: Cells from the A549 (human non-small cell lung carcinoma) line are cultured in an incubator at 37° C. in the presence of 5% CO2 in RPMI 1640 medium containing 10% foetal calf serum, 40 ng/ml HGF (hepatocyte growth factor), 2 mM glutamine, 50 units/ml penicillin, 50 μg/ml streptomycin and 10 mM Hepes buffer, pH=7.4. For the migration test, the A549 cells are transferred to 96-well plates (50,000 cells per well) and cultured for 24 hours to obtain cells at confluence. A one-millimetre thick scratch is made in the cell layer, and the cells are exposed to the compounds under test for 38 hours. The cell cultures are then photographed, and filling of the scratch as a result of migration of the cells is assessed.

[2] = test system: human glioblastoma tumour U87-MG; assay: Inhibition of growth of the tumour U87-MG grafted subcutaneously in mice; type: in vivo, female Nude BalbC mouse; details: oral route; for inhibition of growth: Day 35
Experimental: The human glioblastoma tumour U87-MG was grafted subcutaneously into the female Nude BalbC mouse in an amount of 10^6 cells. The tumours were then randomised into groups of eight mice once the tumour volume had reached 200 mm^3. Daily treatment (6.25, 12.5, 25 and 50 mg/kg) was administered by the oral route (vehicle=water) over a period of 17 days except for the weekends. The tumour volumes were measured twice a week using a sliding calliper. The inhibition of growth found after administration of the compounds according to the invention is statistically significant (two-factor ANOVA, with measurements repeated over time, followed by a DUNETT's test) at all doses tested between Day 21 and Day 35 (date for ethical sacrifice of the mice in the control group in conformity with ethical rules). […] Regression of the order of 70% is observed at a dose of 50 mg/kg.

Compound | melting point | further results
CC(=C1C(=O)Nc2ccc(CN3C(=O)CSC3=O)cc21)c1cc(CN2CCOCC2)c[nH]1.Cl | 225 °C | –
Cl.O=C1Nc2ccc(CN3CCOC3=O)cc2C1=Cc1ccc(CN2CCOCC2)[nH]1 | 195 °C | –
CC(=C1C(=O)Nc2ccc(CN3CCOC3=O)cc21)c1cc(CN2CCOCC2)c[nH]1.Cl | 212 °C | –
Cl.O=C1Nc2ccc(CN3CCSC3=O)cc2C1=Cc1cc(CN2CCOCC2)c[nH]1 | 244 °C | –
Cl.O=C1Nc2ccc(CN3C(=O)COC3=O)cc2C1=Cc1cc(CN2CCOCC2)c[nH]1 | 216 °C | –
Cl.O=C1Nc2ccc(CN3CCOC3=O)cc2C1=Cc1cc(CN2CCCC2)c[nH]1 | 204 °C | –
Cl.O=C1Nc2ccc(CN3CCOC3=O)cc2C1=Cc1cc(CN2CCCCC2)c[nH]1 | 256 °C | –
CCN(CC)Cc1c[nH]c(C=C2C(=O)Nc3ccc(CN4CCOC4=O)cc32)c1.Cl | 192 °C | –
Cl.O=C1Nc2ccc(CN3C(=O)[C@H]4C[C@H]4C3=O)cc2C1=Cc1cc(CN2CCCCC2)c[nH]1 | 198 °C | –
Cl.O=C1Nc2ccc(CN3CCOC3=O)cc2C1=Cc1cc(CN2C[C@H]3C[C@H]3C2)c[nH]1 | 179 °C | –
Cc1[nH]c(C=C2C(=O)Nc3ccc(CN4CCOC4=O)cc32)c(C)c1CN1C[C@H]2CCC[C@H]2C1.Cl | 204 °C | –
CC(=C1C(=O)Nc2ccc(CN3C(=O)COC3=O)cc21)c1cc(CN2CCOCC2)c[nH]1.Cl | 220 °C | –
Cl.O=C1Nc2ccc(CN3C(=O)CCC3=O)cc2C1=Cc1cc(CN2CCOCC2)c[nH]1 | 212 °C | –
Cl.O=C1Nc2ccc(CN3CCOC3=O)cc2C1=Cc1c[nH]cc1CN1CCOCC1 | 210 °C | –
Cl.O=C1Nc2ccc(CCN3C(=O)CSC3=O)cc2C1=Cc1cc(CN2CCOCC2)c[nH]1 | 289 °C (dec.) | –
CC1(C)OC(=O)N(Cc2ccc3c(c2)C(=Cc2cc(CN4CCOCC4)c[nH]2)C(=O)N3)C1=O.Cl | 191 °C | –
Cl.O=C1Nc2ccc(CN3C(=O)CSC3=O)cc2C1=Cc1cc(CN2CCOCC2)c[nH]1 [Example 1, 3-[(3-{[4-(4-Morpholinylmethyl)-1H-pyrrol-2-yl]methylene}-2-oxo-2,3-dihydro-1H-indol-5-yl)methyl]-1,3-thiazolidine-2,4-dione hydrochloride] | – | inhibition of migration (filling of the scratch) [1]: total inhibition; inhibition of growth ([2]; 6.25 mg/kg daily): 102%; inhibition of growth ([2]; 12.5 mg/kg daily): 84%; inhibition of growth ([2]; 25 mg/kg daily): 98%; regression ([2]; 50 mg/kg daily): ~70%
O=C1Nc2ccc(CN3CCOC3=O)cc2C1=Cc1[nH]ccc1CN1CCOCC1 [Example 21, 3-(3-Morpholin-4-ylmethyl-1H-pyrrol-2-ylmethylene)-5-(2-oxo-oxazolidin-3-ylmethyl)-1,3-dihydro-indol-2-one] | 192 °C | –
